PubChem BioAssay (NCI)
Several values for one entry are separate records, joined by “and”; a condition that tells them apart may be missing. Equal entries are not always repeated.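 Growth conditions: 96-well plates. Treatment: test compound, 48 hours, 5 concentrations. Analysis: linear interpolation between bracketing concentrations; unreached endpoints set to highest concentration. At the GI50, growth is halved. At the TGI there is no net growth.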

tested on: 786-0 renal; experiment: growth of human tumour cells (NCI), 48 h

SMILES	GI50	TGI
Cn1c2ccccc2c2c3[nH]c(=O)[nH]c(=O)c3c3c4ccccc4n(C)c3c21	1.88 µM	4.34 µM
O=C1/C(=C/c2ccc(O)cc2)CSc2ccc(Cl)cc21	17.2 µM	49.8 µM
Fc1ccc(-c2nn3ncccc3c2-c2ccnc(Nc3ccc4c(c3)OCCO4)n2)cc1	2.29 µM	> 25 µM
CC1(C)N=C(N)N=C(N)N1c1ccc(OCc2ccc(S(=O)(=O)F)c(Cl)c2)c(Cl)c1	0.814 µM	> 100 µM
CO[C@H]1C=C[C@@]23c4cc5c(cc4CO[C@]2(O)CN(C)[C@H]3C1)OCO5		> 100 µM
COC(=O)c1c(C)[nH]c(/C=C2\N=C(c3ccc[nH]3)C=C2OC)c1C	0.262 µM	1.4 µM
COc1cc2c3c(n(CCCCOC(=O)C(Cl)(Cl)Cl)c(=O)c2cc1OC)-c1cc2c(cc1C3=O)OCO2	17.2 µM	41.3 µM
CCOC(=O)c1c(C)nc2c(c1N)/C(=C/c1ccc(OC)cc1)C(=O)N2Cc1ccc(F)cc1	0.165 µM	0.389 µM
C/C(=N\Nc1ccc(Cl)cn1)c1ccccn1	0.206 µM	> 33.9 µM
COc1cc(NS(=O)(=O)c2ccc(-c3cnc(C4CC4)o3)cc2)ccc1F	0.694 µM	21.4 µM
CC(C)CCCC(=O)CCCCCCC(=O)CCN(O)C(=O)C(N)CO (stereo not drawn)		36.2 µM
Cc1ccc(NC(=O)NCCCOc2ccc(N3C(N)=NC(N)=NC3(C)C)cc2Cl)cc1S(=O)(=O)F	7.36 µM	> 100 µM
CC[CH2][Sn]([Cl])([Cl])[CH2]CC.Oc1ccccc1C=NCCN=Cc1ccccc1O	7.91 µM	20.7 µM
COc1ccccc1Cn1cc2c(c1-c1ccccc1)CCc1cnoc1-2	4.04 µM	> 100 µM
COc1cc2c(c(OC)c1OC)C(=O)[C@@H]1c3ccc([N+](=O)[O-])cc3C(=O)N(CCCBr)[C@H]21	12.5 µM	33.1 µM
Nc1ncn(C2CC(O)C(CO)O2)c(=O)n1 (stereo not drawn)		> 256 µM
C/C=C(\C)CC/C=C/CO[Si](C)(C)C(C)(C)C		> 100 µM
COc1cc2c3c(n(C)c(=O)c2cc1OC)-c1cc2c(cc1/C3=C\CNCCCN)OCO2	0.367 µM	6.07 µM
O=C(/C=C\n1cnc(-c2cc(C(F)(F)F)cc(C(F)(F)F)c2)n1)NNc1cnccn1	0.0781 µM	13.9 µM
NCCCn1c2c(c3ccc([N+](=O)[O-])cc3c1=O)C(=O)c1cc(Br)ccc1-2	0.0435 µM and 0.0643 µM	0.173 µM and 0.387 µM
CN1C(=O)c2ccccc2NC(=O)C12O[C@@H]2c1cccc(O)c1 (stereo partly drawn)		> 100 µM

tested on: SF-539 CNS; experiment: growth of human tumour cells (NCI), 48 h

SMILES	TGI [µM]	GI50 [µM]
Cn1cnc([N+](=O)[O-])c1[Se]c1nc(N)nc2c1ncn2C1OC(CO)C(O)C1O (stereo not drawn)	> 100	
C=C(C)C1CCC2(C(=O)O)CCC3(C)C(CCC4C5(C)CCC(OC(=O)NCc6ccccc6)C(C)(C)C5CCC43C)C12 (stereo not drawn)	> 100	41.9
Clc1ccc(-c2c(C3=NCCCN3)nnn2-c2ccc(Cl)cc2)cc1	67.5	
C=C[C@H]1C[C@@H]2C[C@@H]3[C@H]4C/C=C\C(=O)NCCCC5NC(=O)C(=C(O)/C=C/[C@@H]4CC(=O)[C@H]3[C@@H]2[C@H]1C)C5=O (stereo partly drawn)	0.666	0.248
Cc1ccc(C(=O)Nc2ccc(CN3CCN(C)CC3)c(C(F)(F)F)c2)cc1C#Cc1cnc(N)c2ccccc12	1.41	0.729
C=C1CC[C@@H]2[C@](C)(COC(C)=O)[C@H](OC(C)=O)CC[C@@]2(C)[C@@H]1CC(Nc1ccc(S(=O)(=O)Nc2ncccn2)cc1)C1=CCOC1=O (stereo partly drawn)	2.94	1.5
Cn1c2ccccc2c2c3[nH]c(=O)[nH]c(=O)c3c3c4ccccc4n(C)c3c21	6.61	1.78
O=C1/C(=C/c2ccc(O)cc2)CSc2ccc(Cl)cc21	31.4	16.8
Fc1ccc(-c2nn3ncccc3c2-c2ccnc(Nc3ccc4c(c3)OCCO4)n2)cc1	> 25	6.59
CC1(C)N=C(N)N=C(N)N1c1ccc(OCc2ccc(S(=O)(=O)F)c(Cl)c2)c(Cl)c1	> 100	4.57
CO[C@H]1C=C[C@@]23c4cc5c(cc4CO[C@]2(O)CN(C)[C@H]3C1)OCO5	> 100	
COC(=O)c1c(C)[nH]c(/C=C2\N=C(c3ccc[nH]3)C=C2OC)c1C	2.29	0.756
